Entries after “also recorded” stand apart in the source; their conditions may differ. Read-outs that look alike come from different tables or passages of the source. Non-standard residues stand in square brackets, D forms with d. Residues, ends and D or L forms follow the SMILES beside them. *: point of attachment. DOTA = O=C(O)CN1CCN(CC(=O)O)CCN(CC(=O)*)CCN(CC(=O)O)CC1; pY = N[C@@H](Cc1ccc(OP(=O)(O)O)cc1)C(=O)O; Nle = CCCC[C@H](N)C(=O)O
Key:
[1] = cited from earlier work
Description: Another approach to reduce uptake of radioactivity by the kidneys is coinjection of radiopeptides with basic amino acids. […] This method was first applied for ^111In-labeled DTPA-octreotide ([31], [32]) and ^90Y-labeled DOTA-[Tyr^3]-octreotide ([32], [33]).

[2] = Biodistribution of ^111In-labeled peptides in B16-F1 melanoma-bearing mice; assay type: in vivo, mouse (B6D2F1); details: female, iv, total radioactivity; for tissue to tissue ratio at 24 h / tissue to tissue ratio at 48 h: B6D2F1 (C57BL/6 × DBA/2F1 hybrids), mouse; for tissue to tissue ratio at 24 h / tissue to tissue ratio at 48 h / tissue to tissue ratio at 4 h: 185 kBq, mean tumor uptake divided by mean kidney uptake; for tissue to tissue ratio at 24 h: 24 h postinjection; for tissue to tissue ratio at 48 h: 48 h postinjection; for tissue to tissue ratio at 4 h / tissue uptake at 4 h: B6D2F1, mouse; for tissue to tissue ratio at 4 h: 4 h postinjection; for tissue uptake at 4 h: ^111In-labeled peptide, 185 kBq i.v., mean ± SEM of three experiments, n = 5 animals each
Method: (§1) About 5 × 10^5 B16-F1 cells were implanted subcutaneously to female B6D2F1 mice (C57BL/6 × DBA/2F1 hybrids; breeding pairs obtained from IFFA-CREDO, France). Seven days later, 185 kBq of ^111In-labeled ligand in 200 µL PBS/0.1% BSA were injected intravenously into the lateral tail vein of each mouse. Control mice were injected with a mixture of the tracer and 50 µg α-MSH to determine the non-specific uptake of radioligand. The animals were sacrificed 4, 24, and 48 h postinjection, dissected, and the tissues of interest collected, rinsed of excess blood, and weighed. The radioactivity emitted by each organ was measured in a γ-counter to determine the tissue uptake as percentage of the injected dose (ID) per gram of tissue. The total of injected radioactivity per animal was determined by extrapolation from the counts of a standard collected from the injection solution for each animal. Urine samples were collected at 10, 15, and 20 min and 4 h after injection and kept frozen at −80°C until use. Urine (1 vol) was mixed with methanol (2 vol) to precipitate proteins, and the supernatant was analyzed by RP-HPLC/γ-detection, as described in Ref. ([12]).
(§2) Results are expressed as means ± SEM, unless otherwise stated. The statistical evaluation of data was performed using the one- or two-way ANOVA test. When significant overall effects were obtained by ANOVA, multiple comparisons were made with the Bonferroni correction. P < 0.05 was considered statistically significant. The area under the curve (AUC) was calculated with the GraphPad Prism 6 software for the indicated period of time, using the mean tissue uptake value at each time point.

B16-F1 cells = assay: Internalization by cultured B16-F1 cells; assay type: cell-based, mouse
Method: B16-F1 cells were seeded in six-well plates and incubated overnight in MEM at 37°C. For the internalization experiments, MEM was replaced by 1 mL MBM (see above) as internalization buffer. After a 1-h incubation at 37°C, 74 kBq of radioligand (^111In-labeled peptides) was added, and the plates were incubated for different time periods. Non-specific internalization was determined by addition of 50 µL of a 1 µM α-MSH solution to the incubation mixture. After the desired incubation times, the cells were extensively washed with MBM kept at 37°C to remove excess radioligand. Incubation in 2 mL ice-cold acid buffer (acetate-buffered Hank’s balanced salt solution, pH 5) for 10 min allowed dissociation of surface-bound ligand. After collection of the acid buffer fraction, the cells were rinsed once with cold MBM, and the washings were pooled with the acid buffer fraction. The cells were washed again with MBM kept at 37°C, lysed in a 1% Triton X-100 solution, and finally transferred to tubes for quantification. The radioactivity of all collected fractions was measured in a γ-counter. A counting plate underwent the same treatment as the plate incubated for the longest time, but its cells were detached with 0.02% EDTA in PBS instead of being lysed with the Triton X-100 solution. Cells from three wells were collected, counted, and thus allowed for normalization of the results obtained. Results were expressed as percent of the added dose per million cells.
Figure 3 Determination of internalization of [^111In] DOTA-NAP-D-Asp-D-Asp (A) and [^111In]DOTA-Phospho-MSH2-9 (B) by cultured B16-F1 cells exposed to the peptides at 37°C for 0.5, 2, and 3.5 h. Surface-bound radioligand was released by an acid buffer wash, and internalized radioligand was determined by lysing cells with detergent. Results are expressed in percent of the added dose per million cells.

[3] = test system: B16-F1 tumor-bearing mice; assay: Biodistribution of ^111In-labeled peptides in B16-F1 melanoma-bearing mice; assay type: in vivo, mouse (B6D2F1)
Method: as §1, §2

[4] = cited from earlier work; remark: listed apart in the source
MC1R = details: cited from earlier work
[5] = set-up: method as in 2 sources, ref 37 = [37]; PMID 9574445; doi:10.3109/08860229809045104; 37 Kok RJ Haas M Moolenaar F de Zeeuw D Meijer DK . Drug delivery to the kidneys and the bladder with the low molecular weight protein lysozyme . Ren Fail ( 1998 ) 20 : 211 – 7 . 10.3109/0886022980904 ||| ref 38 = [38]; PMID 11578896; doi:10.1016/S0969-8051(01)00241-4; 38 Akizawa H Arano Y Mifune M Iwado A Saito Y Mukai T Effect of molecular charges on renal uptake of 111 In-DTPA-conjugated peptides . Nucl Med Biol ( 2001 ) 28 : 761 – 8 . 10.1016/S0969-8051(01)00241; details: urinary excretion; cited from earlier work
[6] = kidney, read-out: Kidney uptake

In the case of `NCCCC[C@@H](N)C(=O)O` [D-Lys], the “Effect of coinjection on tumor uptake (in words)” value [1] is given as “without affecting tumor uptake” and the “Reduction of kidney uptake of radiopeptides by coinjection” value ([1]; coinjected with ^111In-/^90Y-labeled octreotide peptides) is given as “up to 65%”.
`CCCC[C@H](NC(C)=O)C(=O)N[C@@H](CC(=O)O)C(=O)N[C@@H](Cc1c[nH]cn1)C(=O)N[C@H](Cc1ccccc1)C(=O)N[C@@H](CCCNC(=N)N)C(=O)N[C@@H](Cc1c[nH]c2ccccc12)C(=O)NCC(=O)N[C@@H](CCCCNC(=O)CN1CCN(CC(=O)O)CCN(CC(=O)O)CCN(CC(=O)O)CC1)C(=O)N[C@H](CC(=O)O)C(=O)N[C@H](CC(=O)O)C(=O)O` [[^111In]DOTA-NAP-D-Asp-D-Asp, metal not drawn] (Ac-[Nle]DH[dF]RWGK(DOTA)[dD][dD]-OH; N-terminus and C-terminus assumed) gave a tissue to tissue ratio at 24 h [2] of 0.15, a tissue to tissue ratio at 48 h [2] of 0.11 and a tissue to tissue ratio at 4 h [2] of 0.32. For the same molecule, the tissue uptake at 4 h [2, 6] was 5.95 ± 0.85 %ID/g and the tissue uptake at 4 h ([2]; tumor, read-out: Tumor uptake) was 1.93 ± 0.11 %ID/g.
For `CCCC[C@H](NC(C)=O)C(=O)N[C@@H](CC(=O)O)C(=O)N[C@@H](Cc1c[nH]cn1)C(=O)N[C@H](Cc1ccccc1)C(=O)N[C@@H](CCCNC(=N)N)C(=O)N[C@@H](Cc1c[nH]c2ccccc12)C(=O)NCC(=O)N[C@@H](CCCCNC(=O)CN1CCN(CC(=O)O)CCN(CC(=O)O)CCN(CC(=O)O)CC1)C(=O)N[C@H](CC(=O)O)C(=O)N[C@H](CC(=O)O)C(=O)O` [[^111In]DOTA-NAP-D-Asp-D-Asp] [metal not drawn] (Ac-[Nle]DH[dF]RWGK(DOTA)[dD][dD]-OH; N-terminus and C-terminus assumed), the “Internalization profile (in words)” value (B16-F1 cells; 37°C, 0.5, 2 and 3.5 h, 74 kBq radioligand) was “excellent internalization profiles”, the “Internalization plateau (in words)” value (B16-F1 cells; 37°C, 3.5 h) was “not quite reached” and the “Uptake by other organs (in words)” value ([3]; 4–48 h) was “Other organs did not substantially accumulate the radiopeptide”. The “Kidney uptake higher than that of [^111In]DOTA-NAP-amide” value ([3]; 4 h after injection) was 25% and the “Radioactive load of kidney higher than with the reference peptide” value ([3]; 24 h after injection) was 70%.
`CCCC[C@H](NC(C)=O)C(=O)N[C@@H](CC(=O)O)C(=O)N[C@@H](Cc1c[nH]cn1)C(=O)N[C@H](Cc1ccccc1)C(=O)N[C@@H](CCCNC(=N)N)C(=O)N[C@@H](Cc1c[nH]c2ccccc12)C(=O)NCC(=O)N[C@@H](CCCCNC(=O)CN1CCN(CC(=O)O)CCN(CC(=O)O)CCN(CC(=O)O)CC1)C(N)=O` [[^111In]DOTA-NAP-amide, metal not drawn, reference compound] gave a tissue to tissue ratio at 24 h [2] of 0.96, a tissue to tissue ratio at 48 h [2] of 0.91 and a tissue to tissue ratio at 4 h [2] of 1.63. For the same molecule, the tissue uptake at 4 h [2, 6] was 4.77 ± 0.26 %ID/g, the tissue uptake at 4 h ([2]; tumor, read-out: Tumor uptake) was 7.77 ± 0.35 %ID/g and the “Metabolite in vivo (in words)” value ([4]; 4 h after injection, ref Froidevaux and Eberle, unpublished) was “Lys([^111In]DOTA), a metabolite of internalized [^111In]DOTA-NAP-amide occurring 4 h after injection”.
Work on `CCCC[C@H](NC(=O)[C@H](Cc1ccc(OP(=O)(O)O)cc1)NC(=O)CNC(=O)CN1CCN(CC(=O)O)CCN(CC(=O)O)CCN(CC(=O)O)CC1)C(=O)N[C@@H](CC(=O)O)C(=O)N[C@@H](Cc1c[nH]cn1)C(=O)N[C@H](Cc1ccccc1)C(=O)N[C@@H](CCCNC(=N)N)C(=O)N[C@@H](Cc1c[nH]c2ccccc12)C(N)=O` [[^111In]DOTA-Phospho-MSH2-9, metal not drawn] ({DOTA}-G[pY][Nle]DH[dF]RW-NH2) yielded a tissue to tissue ratio at 24 h [2] of 1.55, a tissue to tissue ratio at 48 h [2] of 1.16 and a tissue to tissue ratio at 4 h [2] of 2.75. The tissue uptake at 4 h [2, 6] was 2.68 ± 0.18 %ID/g and the tissue uptake at 4 h ([2]; tumor, read-out: Tumor uptake) was 7.33 ± 0.47 %ID/g.
With `CCCC[C@H](NC(=O)[C@H](Cc1ccc(OP(=O)(O)O)cc1)NC(=O)CNC(=O)CN1CCN(CC(=O)O)CCN(CC(=O)O)CCN(CC(=O)O)CC1)C(=O)N[C@@H](CC(=O)O)C(=O)N[C@@H](Cc1c[nH]cn1)C(=O)N[C@H](Cc1ccccc1)C(=O)N[C@@H](CCCNC(=N)N)C(=O)N[C@@H](Cc1c[nH]c2ccccc12)C(N)=O` [[^111In]DOTA-Phospho-MSH2-9] [metal not drawn] ({DOTA}-G[pY][Nle]DH[dF]RW-NH2) the “Effect of coinjection of α-MSH on melanoma uptake (in words)” value ([3]; 50 µg α-MSH coinjected, data not shown) was “significantly blocked melanoma uptake”, the “Clearance from the kidney (in words)” value ([3]; 4–48 h) was “slightly slower” and the “Uptake by other organs (in words)” value ([3]; 4–48 h) was “very low and did not exceed the values found with [^111In]DOTA-NAP-amide”. The “Kidney retention lower than that of [^111In]DOTA-NAP-amide” value ([3]; 4 h after injection) was 44%, the “Kidney uptake as percentage of that of the reference peptide” value ([3]; 4 h after injection) was 56% and the “Retention of radioactivity by the tumor” value ([3]; 24 h postinjection, decreased to % of 4 h value) was 40%. The “Tumor-to-kidney ratio compared with other peptides (in words)” value ([3]; AUC (4–48 h) or overall comparison) was “threefold higher; also recorded: most favorable tumor-to-kidney ratio of a linear DOTA-MSH radiopeptide reported to date”, the “Kidney uptake/retention compared with reference (in words)” value ([3]; in vivo) was “markedly lower” and the “Tumor uptake compared with reference (in words)” value ([3]; in vivo, B16-F1 tumors) was “almost identical with that of [^111In]DOTA-NAP-amide; also recorded: about as high as for the reference compound”. The “Kidney uptake compared with other peptides (in words)” value ([3]; peptides of net charge −2 to +2, five of the eight peptides from ref 14) was “slightly lower kidney uptake than [^111In-DOTA-Nle^4,Asp^5,D-Phe^7,Lys^11(Suc)]-α-MSH4-11-carboxylate”.
For “Ac-Nle-cyclo[Asp-His-D-Phe-Arg-Trp-Lys]-NH2 (sidechain bridge or staple) [melanotan II]”, the “Binding affinity (in words)” value (MC1R; cyclic analog compared with α-MSH) is given as “increased binding affinity”.
For “[DOTA-Nle^4,Asp^5,D-Phe^7,Lys^11(Suc)]-α-MSH4-11-carboxylate”, the “Kidney uptake (in words)” value ([4]; in vivo) is listed as “reduced kidney uptake”, the “Tumor uptake (in words)” value ([4]; in vivo) is listed as “tumor uptake was also affected” and the “Tumor-to-kidney ratio (in words)” value ([4]; in vivo) is listed as “even lower than that of the parent molecule”.
For [Nle^4, D-Phe^7]-α-MSH [NDP-MSH], the “Binding affinity (in words)” value (MC1R; linear analog compared with α-MSH) is given as “increased binding affinity”.
In the case of “[^111In-DOTA-Nle^4,Asp^5,D-Phe^7,Lys^11(Suc)]-α-MSH4-11-carboxylate”, the “MC1R affinity (in words)” value (MC1R) is given as “lower MC1R affinity”, the “AUC (4–48 h), tumor-to-kidney” value ([4]; in vivo) is given as 0.62 and the “Kidney uptake (in words)” value ([4]; in vivo) is given as “lowest kidney uptake”. For the same molecule, the “Tumor uptake (in words)” value ([4]; in vivo) was “reduced uptake by melanoma tumors”.
For “succinylated lysozyme: succinylated lysozyme, compared to the non-succinylated molecule with six amino groups”, the “Excretion compared to non-succinylated molecule (in words)” value [5] is given as “dramatically increased”.
